Assays:
MCF-7 cells = assay: Celltiter 96 Aqueous cell proliferation assay, MCF-7; type: cell-based; settings: MCF-7, 18 hours with compound
Experimental: (§1) Compounds prepared according to the method of Example 1 were assayed against several different cell lines. Cell monolayers were cultured in the presence of test compound for 18 hours to access their ability to inhibit cell proliferation. Cell proliferation was determined colorimetrically using the Celltiter 96 Aqueous non-radioactive cell proliferation assay (Promega) where cell proliferation is directly proportional to absorbance at 490 nm. Results are quoted as the IC50 in μg/ml for inhibition of cell proliferation in various cell types.

CaCo cells = assay: Celltiter 96 Aqueous cell proliferation assay, CaCo; type: cell-based; settings: 18 hours with compound
Experimental: as §1

[1] = biological target: T1, 20S catalytic subunit of the proteasome (multicatalytic proteinase complex) (Bos taurus, UniProt Q32KL2); assay: 20S proteasome chymotryptic activity, fluorogenic peptide cleavage; type: biochemical, bovine; settings: 50 μM succinyl-leu-leu-val-tyr-7-amino-4-methyl coumarin, 15 minutes at 37° C, pH7.5
T1 construct: was purified to homogeneity from bovine brain according to published methods; from tissue; host or cells: bovine brain
Outline: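 Purified bovine-brain 20S proteasome (2 μg) with 0.1-100 μg/ml inhibitor in 50 mM HEPES, 0.1% SDS, pH 7.5. Reaction started with 50 μM Suc-LLVY-AMC, 15 min at 37° C, stopped with pH 4.0 acetate; liberated AMC read by fluorescence (ex 370, em 430 nm).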

[2] = test system: LPS induced TNF synthesis; assay: Inhibition of LPS induced TNF synthesis in RAW cells (ELISA); type: cell-based; settings: 1 hour pretreatment, LPS 100 ng/ml, supernatant after 1 hour
Experimental: Compounds prepared according to the method of Example 1 were tested for the inhibition of LPS induced TNF synthesis. RAW cells were pretreated with different concentrations of test compound for 1 hour prior to the administration of lipopolysaccharide (100 ng/mi). Cell culture supernatants were harvested after 1 hour and assayed for TNF concentration by ELISA (Biosource)

OVCAR cells = assay: Celltiter 96 Aqueous cell proliferation assay, OVCAR; type: cell-based; settings: 18 hours with compound
Experimental: as §1

IκB degradation = assay: Inhibition of LPS-induced IκB degradation, Western blot of RAW cell lysates; type: cell-based; settings: 1 hour pretreatment, LPS 100 ng/ml 1 hour, anti-IκBα Western blot (FIG. 1)
Text: (§2) This Example examines the ability of compound 173 and particularly compound 187 described in Tables 1 & 2 above to inhibit proteasome activity as indicated, in part, by the presence of IκB and/or p105 in inhibited cells. In order for NF-κB to translocate to the nucleus in response to a stimulus such as lipopolysaccharide (LPS) and activate transcription two proteolytic events need to occur, namely degradation of the inhibitory protein IκB and processing of p105 to p50. These proteolytic events serve to unmask the nuclear localization signal of NF-κB.
RAW cells were pretreated with different concentrations of test compound for 1 hour prior to the administration of lipopolysaccharide (100 ng/ml). Whole cell lysates were harvested after 1 hour, 10 μg, protein was separated by SDS-PAGE, transferred to nitrocellulose and assayed for immunoreactivity with anti-IκBa antibody. Western blots, (See FIG. 1), were visualized using the Boehringer Mannheim Chemiluminescent detection kit.

Panc-I cells = assay: Celltiter 96 Aqueous cell proliferation assay, Panc-I; type: cell-based; settings: 18 hours with compound
Experimental: as §1

RAW cells = assay: Celltiter 96 Aqueous cell proliferation assay, RAW; type: cell-based; settings: 18 hours with compound
Experimental: as §1

NF-κB = assay: Inhibition of LPS-induced translocation of NF-κB to the nucleus, gel mobility shift assay; type: cell-based; settings: RAW cells, 20 μg/ml for 1 hour, then LPS 100 ng/ml 1 hour (FIG. 3)
Experimental: RAW cells were treated for 1 hour with compound 187 (20 μg/ml) and then incubated with lipopolysaccharide (100 ng/ml) for a further one hour. Nuclear fractions were prepared according to standard procedures. Binding reactions for gel mobility shift assays contained 5 μg of nuclear extract protein, 50,000 cpm of ^32 P-labeled NF-κB consensus binding oligonucleotide in the presence and absence of a fifty fold excess of unlabeled oligonucleotide.

p105 to p50 processing = assay: Inhibition of LPS-induced p105 to p50 processing, Western blot of RAW cell lysates; type: cell-based; settings: 1 hour pretreatment, anti-p50 Western blot (FIG. 2)
Text: as §2
Compound 187 as described in Tables 1 & 2 above was used to pretreat RAW cells as described above, and whole cell lysates prepared as described above were analyzed for immunoreactivity toward an anti-p50 antibody. The results, set forth in FIG. 2 indicate that p50 and […] are both present in cells treated with as little as 5 μg/ml of compound 187, while in untreated cells, majority of P 105 has been processed to p50.

COc1ccc2c(c1)C(CC(=O)NC(CC(C)C)C(=O)NC(CC(C)C)C(=O)NCc1ccccc1)CC2=O (mixture of isomers) [Compound 173]
IC50 for inhibition of cell proliferation, MCF-7 (MCF-7 cells): 10 µg/mL
IC50 for inhibition of cell proliferation, CaCo (CaCo cells): 17 µg/mL
IC50 [1]: 0.5 µg/mL
IC50 inhibition of LPS induced TNF synthesis [2]: 5 µg/mL
IC50 for inhibition of cell proliferation, OVCAR (OVCAR cells): 8 µg/mL
concentration at which IκB is present in treated cells (IκB degradation): ≤ 5 µg/mL
IC50 for inhibition of cell proliferation, Panc-I (Panc-I cells): 17 µg/mL
IC50 for inhibition of cell proliferation, RAW (RAW cells): 20 µg/mL

COc1ccc2c(c1)C(CC(=O)NC(CC(C)C)C(=O)NC(CC(C)C)C(=O)NC1CCc3ccccc31)CC2=O (mixture of isomers) [Compound 187]
accumulation of NF-κB in the nucleus of cells (NF-κB): effective in inhibiting the accumulation of NF-κB in the nucleus of cells
IC50 for inhibition of cell proliferation, MCF-7 (MCF-7 cells): 6 µg/mL
IC50 for inhibition of cell proliferation, CaCo (CaCo cells): 8 µg/mL
IC50 [1]: 0.5 µg/mL
IC50 inhibition of LPS induced TNF synthesis [2]: 5 µg/mL
IC50 for inhibition of cell proliferation, OVCAR (OVCAR cells): 5 µg/mL
concentration at which IκB is present in treated cells (IκB degradation): ≤ 5 µg/mL
IC50 for inhibition of cell proliferation, Panc-I (Panc-I cells): 7 µg/mL
concentration at which p50 and p150 are both present in treated cells (p105 to p50 processing): ≤ 5 µg/mL
IC50 for inhibition of cell proliferation, RAW (RAW cells): 10 µg/mL

Reference: patent US5834487A, “Inhibition of 26S and 20S proteasome by indanones” (CV Therapeutics, priority 1996, dated 1998)
